{
  "source": "patent US10987366B2",
  "about": "“Methods and compositions for protection of cells and tissues from computed tomography radiation” (The University of Chicago, priority 2010, dated 2021)",
  "key": {"RKO36 cells [1]": {"test_system": "RKO36 cells", "assay": "Micronuclei formation in irradiated RKO36 cells", "format": "cell-based, human", "description": "Under the treatment conditions in which cells were exposed to WR1065 either 30 min before or 3 h following irradiation the protective effect is the result of a direct interaction between the thiol taken up by the cells and the damage induced by radiation. This direct protective effect disappeared when the drug was added 6 h following irradiation. However, when cells were exposed to the thiol 24 h prior to irradiation to allow for the induction of elevated MnSOD enzyme levels, a protective effect was again observed ([…]). In contrast to the data described in FIG. 4A, the protection described in FIG. 4B was mediated not directly by thiol action (Grdina et al., 1995) but as a result of a thiol-induced adaptive response mediated through the activation of NFκB resulting in the elevation of MnSOD activity (Murley et al., 2002; Murley et al., 2004; Murley et al., 2006; Murley et al., 2007; Murley et al., 2008). For comparison, a radiation-induced adaptive response was investigated by first exposing RKO36 cells to 10 cGy and then challenging with a 2 Gy dose 0, 4, 8, 12, 16, 20, and 24 h later (see FIG. 5)."}, "RKO36 cells [2]": {"test_system": "RKO36 cells", "assay": "GFP direct repeat assay of delayed hyperrecombination (GFP+/- colonies)", "format": "cell-based, human", "from_the_text": "Gene conversion can produce a local loss of heterozygosity (LOH) as well as deletions and inversions at linked repeats and translocations (Nickoloff, 2002). The inventor has utilized a green fluorescence protein (GFP)-based assay using human RKO-derived cells to study the role of delayed hyper-recombination in radiation-induced genomic instability (Huang et al., 2004). A GFP direct repeat homologous recombination substrate is incorporated in RKO cells.\nGenomic instability can be measured by analysis of delayed hyperrecombination and mutation/deletion at the GFP direct repeat substrate. GFP-RKO cells can be GFP− or GFP+. When these cells are plated, colonies arising from single cells are either homogenously colorless (GFP−) or green (GFP+). […] Mixed colonies arise by delayed hyperrecombination and can easily be scored using the criteria of having at least >4 cells per colony having an altered fluorescent phenotype. The frequency of induced instability can be calculated as the number of GFP+/− colonies per total surviving colonies scored.\nGenomic instability was evaluated in RKO36 cells by analysis of delayed hyperrecombination and mutation/deletion at the GFP direct repeat substrate. […] The frequency of induced instability is calculated as the number of GFP+/− colonies per total surviving colonies scored (Huang et al., 2004). […]"}},
  "data": [
    {"smiles": "NCCCNCCS", "note": "[WR1065, 2-[(aminopropyl)amino]ethanethiol]", "values": [
      {"measurement": "micronuclei formation, thiol-induced adaptive response", "setting": "RKO36 cells [1]; 2 Gy challenge 24 h following WR1065 exposure", "value": "reduction of micronuclei formation to unirradiated background levels"},
      {"measurement": "frequency of micronuclei formation", "setting": "RKO36 cells [1]; 2 Gy, WR1065 30 min following irradiation (FIG. 4B)", "value": "significantly reduced"},
      {"measurement": "frequency of micronuclei formation", "setting": "RKO36 cells [1]; 2 Gy, WR1065 30 min prior to irradiation (FIG. 4A)", "value": "significantly reduced"},
      {"measurement": "frequency of micronuclei formation", "setting": "RKO36 cells [1]; 2 Gy, WR1065 1 h following irradiation (FIG. 4B)", "value": "significantly reduced"},
      {"measurement": "frequency of micronuclei formation", "setting": "RKO36 cells [1]; 2 Gy, WR1065 2 h following irradiation (FIG. 4B)", "value": "significantly reduced"},
      {"measurement": "frequency of micronuclei formation", "setting": "RKO36 cells [1]; 2 Gy, WR1065 3 h following irradiation (FIG. 4B)", "value": "significantly reduced"},
      {"measurement": "frequency of micronuclei formation", "setting": "RKO36 cells [1]; 2 Gy, WR1065 24 h prior to irradiation (FIG. 4A)", "value": "significantly reduced"},
      {"measurement": "direct protective effect against micronuclei formation", "setting": "RKO36 cells [1]; 2 Gy, drug added 6 h following irradiation", "value": "disappeared"},
      {"measurement": "frequency of GFP+/- colonies", "setting": "RKO36 cells [2]; 4 mM WR1065 for 30 min, no irradiation, P=0.02 vs non-WR1065 irradiated cells (2.7%)", "value": 1.1, "unit": "%"},
      {"measurement": "frequency of GFP+/- colonies", "setting": "RKO36 cells [2]; 10 cGy given 24 h following 4 mM WR1065 for 30 min, P=0.05 vs non-WR1065 irradiated cells (2.7%)", "value": 1.6, "unit": "%"}
    ]}
  ]
}
